Values after ≈ are worked out from the molar mass of the structure shown. Like-named read-outs stand apart in the source and are kept apart here.
Legend:
[1] = system: Haemophilus influenzae; assay: Broth microdilution MIC against Haemophilus influenzae clinical isolates; details: for MIC50 / MIC90: Haemophilus influenzae; for MIC: all evaluated H. influenzae strains, incl. BLNAR, range tested 64-0.06
[2] = system: Burkholderia spp.; assay: organism not typed; assay type: cell-based
[3] = system: B. cepacia; assay: FIC checkerboard assay; assay type: cell-based
[4] = system: P. aeruginosa; assay: FIC checkerboard assay; assay type: cell-based; details: for MICB / FICB: by checkerboard; for MIC: Pseudomonas aeruginosa, Aztreonam alone (checkerboard with BisEDT), read-out: Drug B MIC; for FICB: Colistin in combination with BisEDT
[5] = system: B. cenocepacia; assay: FIC checkerboard assay; assay type: cell-based; details: during FIC testing
[6] = system: B. cenocepacia; assay: Broth microdilution MIC (Example 10); details: initial MIC testing; B. cenocepacia isolate 0548 (CIP-R)
[7] = system: Escherichia coli; assay: Broth microdilution MIC (Example 12)
[8] = system: Acinetobacter baumannii; assay: Broth microdilution MIC (Example 12)
[9] = system: Klebsiella pneumoniae; assay: Broth microdilution MIC (Example 12)
[10] = system: B. cepacia; assay: Broth microdilution MIC (Example 10); details: initial MIC testing
[11] = system: Pseudomonas aeruginosa; assay: Broth microdilution MIC (Example 12)
[12] = system: A. fumigatus; assay: Broth microdilution antifungal susceptibility (Example 13); assay type: cell-based
[13] = system: A. niger; assay: as above; assay type: cell-based; details: A. niger ATCC 29508
[14] = system: A. flavus; assay: as above; assay type: cell-based
[15] = system: A. terreus; assay: as above; assay type: cell-based; details: A. terreus MMX 8229
[16] = during FIC testing, B. cepacia isolate 0546

`CO/N=C(\C(=O)N[C@@H]1C(=O)N2C(C(=O)O)=C(COC(N)=O)CS[C@H]12)c1ccco1` [cefuroxime, Cefuroxime] gave an MIC50 [1] of 4 µg/mL (≈ 9.43 µM) and an MIC90 [1] of 16 µg/mL (≈ 37.7 µM).
Work on `C[C@H]1[C@H](NC(=O)/C(=N\OC(C)(C)C(=O)O)c2csc(N)n2)C(=O)N1S(=O)(=O)O` [Aztreonam] yielded an MIC ([2]; read-out: Drug B MIC) of 16 µg/mL (≈ 36.7 µM), an MIC ([3]; Burkholderia cepacia, B. cepacia 546, Aztreonam alone (checkerboard with BisEDT), read-out: Drug B MIC) of 32 µg/mL and an MIC ([3]; Burkholderia cepacia, B. cepacia 1793, Aztreonam alone (panel with BisEDT), read-out: Drug B MIC) of 128 µg/mL. The MICB ([4]; P. aeruginosa 7745, Aztreonam MIC in combination with BisEDT) was 16 µg/mL, the MICB ([4]; P. aeruginosa 9108, Aztreonam MIC in combination with BisEDT) was 16 µg/mL and the MIC ([4]; P. aeruginosa 6322) was 32 µg/mL. The MIC ([4]; P. aeruginosa 6977) was 64 µg/mL, the MIC ([4]; P. aeruginosa 7745) was 16 µg/mL and the MIC ([4]; P. aeruginosa 8798) was greater than 256 µg/mL. For the same compound, the MIC ([4]; P. aeruginosa 9108) was 16 µg/mL.
With `C[C@H]1[C@H](NC(=O)/C(=N\OC(C)(C)C(=O)O)c2csc(N)n2)C(=O)N1S(=O)(=O)O` [AZT] the MIC [3, 16] was 32 µg/mL, the MIC ([5]; B. cenocepacia isolate 0813 (CIP-I)) was 32 µg/mL and the MIC [6] was 64 µg/mL (≈ 147 µM).
With `CC[C@H]1OC(=O)[C@H](C)[C@@H](O[C@H]2C[C@@](C)(OC)[C@@H](O)[C@H](C)O2)[C@H](C)[C@@H](O[C@@H]2O[C@H](C)C[C@H](N(C)C)[C@H]2O)[C@](C)(O)C[C@@H](C)CN(C)[C@H](C)[C@@H](O)[C@]1(C)O` [azithromycin, Azithromycin] the MIC50 [1] was 2 µg/mL (≈ 2.67 µM) and the MIC90 [1] was 2 µg/mL (≈ 2.67 µM).
With `CC1(C)S[C@@H]2[C@H](NC(=O)[C@H](N)c3ccccc3)C(=O)N2[C@H]1C(=O)O` [ampicillin, Ampicillin] the MIC50 [1] was 2 µg/mL (≈ 5.72 µM) and the MIC90 [1] was 4 µg/mL (≈ 11.4 µM).
In the case of “bismuth-2,3-butanedithiol, 2-mercaptopyridine N-oxide [BisBDT/PYR]”, the MIC [1] is reported as less than 0.06 µg/mL.
In the case of Colistin, the FICB ([2]; B. multivorans 1795, FIC of Colistin in combination with BisEDT, per checkerboard row) is reported as 1, the MICB ([4]; P. aeruginosa 6322, Colistin MIC in combination with BisEDT) is reported as 0.5 µg/mL and the FICB ([4]; P. aeruginosa 6322) is reported as 1. For the same compound, the MICB ([4]; P. aeruginosa 6977, Colistin MIC in combination with BisEDT) was 1 µg/mL, the FICB ([4]; P. aeruginosa 6977) was 1 and the MICB ([4]; P. aeruginosa 7745, Colistin MIC in combination with BisEDT) was 0.5 µg/mL. For the same compound, the FICB ([4]; P. aeruginosa 7745) was 1.
With “bismuth-1,2-ethanedithiol, 2-mercaptopyridine N-oxide [BisEDT/PYR]” the MIC [1] was less than 0.06 µg/mL.
`NCC[C@H](O)C(=O)N[C@@H]1C[C@H](N)[C@@H](O[C@H]2O[C@H](CN)[C@@H](O)[C@H](O)[C@H]2O)[C@H](O)[C@H]1O[C@H]1O[C@H](CO)[C@@H](O)[C@H](N)[C@H]1O` [AMK] was tested, and the MIC [3, 16] was 64 µg/mL, the MIC ([3]; during FIC testing, B. cepacia isolate 1793) was 32 µg/mL and the MIC ([7]; E. coli ATCC 35218, ESBL) was 1 µg/mL (≈ 1.71 µM). It also gave an MIC ([7]; E. coli ATCC 35218, QC organism (Table 102)) of 1 µg/mL (≈ 1.71 µM), an MIC ([7]; E. coli ATCC BAA-2471, NDM) of 64 µg/mL (≈ 109 µM) and an MIC ([7]; E. coli CDC 114, ESBL/KPC) of 1 µg/mL (≈ 1.71 µM). For the same compound, the MIC ([7]; E. coli CDC 118, ESBL/NDM) was greater than 64 µg/mL, the MIC ([7]; E. coli CDC 435, NDM) was greater than 64 µg/mL and the MIC ([7]; E. coli CDC 451, KPC) was 4 µg/mL (≈ 6.83 µM). It also gave an MIC ([7]; E. coli CDC 503, ESBL/NDM) greater than 64 µg/mL, an MIC ([7]; E. coli MMX 5745, KPC) of 0.5 µg/mL (≈ 0.854 µM) and an MIC ([7]; E. coli MMX 5755, ESBL) of 16 µg/mL (≈ 27.3 µM). For the same compound, the MIC ([7]; E. coli MMX 5756, ESBL) was 64 µg/mL (≈ 109 µM), the MIC ([7]; E. coli MMX 5758, ESBL) was 1 µg/mL (≈ 1.71 µM) and the MIC ([8]; A. baumannii CDC 273, ESBL/OXA) was greater than 64 µg/mL. For the same compound, the MIC ([8]; A. baumannii CDC 274, ESBL/OXA) was 16 µg/mL (≈ 27.3 µM), the MIC ([8]; A. baumannii CDC 275, ESBL/OXA) was greater than 64 µg/mL and the MIC ([8]; A. baumannii CDC 277, ESBL/OXA) was 16 µg/mL (≈ 27.3 µM). The MIC ([8]; A. baumannii CDC 284, ESBL/OXA) was 32 µg/mL (≈ 54.6 µM), the MIC ([8]; A. baumannii CDC 307, OXA) was greater than 64 µg/mL and the MIC ([8]; A. baumannii CDC 308, ESBL/OXA) was greater than 64 µg/mL. It also gave an MIC ([8]; A. baumannii CDC 311, OXA) greater than 64 µg/mL, an MIC ([8]; A. baumannii CDC 312, OXA) of 1 µg/mL (≈ 1.71 µM) and an MIC ([8]; A. baumannii CDC 313, ESBL/OXA) of 4 µg/mL (≈ 6.83 µM). For the same compound, the MIC ([8]; A. baumannii NCTC 13304, OXA) was 0.5 µg/mL (≈ 0.854 µM), the MIC ([9]; K. pneumoniae ATCC BAA-1705, ESBL/KPC) was 16 µg/mL (≈ 27.3 µM) and the MIC ([9]; K. pneumoniae ATCC BAA-1705, QC organism (Table 102)) was 16 µg/mL (≈ 27.3 µM). It also gave an MIC ([9]; K. pneumoniae CDC 112, KPC) of 16 µg/mL (≈ 27.3 µM), an MIC ([9]; K. pneumoniae CDC 113, ESBL/KPC) of 16 µg/mL (≈ 27.3 µM) and an MIC ([9]; K. pneumoniae CDC 115, ESBL/KPC) of 0.5 µg/mL (≈ 0.854 µM). For the same compound, the MIC ([9]; K. pneumoniae CDC 120, ESBL/KPC) was 16 µg/mL (≈ 27.3 µM), the MIC ([9]; K. pneumoniae CDC 126, ESBL/KPC) was 2 µg/mL (≈ 3.42 µM) and the MIC ([9]; K. pneumoniae CDC 129, ESBL/KPC) was 32 µg/mL (≈ 54.6 µM). It also gave an MIC ([9]; K. pneumoniae CDC 135, ESBL/VIM) of 16 µg/mL (≈ 27.3 µM), an MIC ([9]; K. pneumoniae CDC 138, ESBL/NDM) greater than 64 µg/mL and an MIC ([9]; K. pneumoniae CDC 158, ESBL/NDM/OXA) of 2 µg/mL (≈ 3.42 µM). It also gave an MIC ([9]; K. pneumoniae MMX 9029, ESBL) of 0.5 µg/mL (≈ 0.854 µM), an MIC ([10]; B. cepacia isolate 0546) of 64 µg/mL (≈ 109 µM) and an MIC ([10]; B. cepacia isolate 1793) of 64 µg/mL (≈ 109 µM). For the same compound, the MIC ([11]; P. aeruginosa CDC 230, VIM/OXA) was greater than 64 µg/mL, the MIC ([11]; P. aeruginosa CDC 231, KPC/OXA) was 8 µg/mL (≈ 13.7 µM) and the MIC ([11]; P. aeruginosa CDC 241, IMP/OXA) was 32 µg/mL (≈ 54.6 µM). For the same compound, the MIC ([11]; P. aeruginosa CDC 246, NDM/OXA) was greater than 64 µg/mL, the MIC ([11]; P. aeruginosa CDC 250, NDM/OXA) was greater than 64 µg/mL and the MIC ([11]; P. aeruginosa CDC 356, KPC) was 2 µg/mL (≈ 3.42 µM). It also gave an MIC ([11]; P. aeruginosa CDC 439, IMP) greater than 64 µg/mL, an MIC ([11]; P. aeruginosa CDC 444, VIM) greater than 64 µg/mL and an MIC ([11]; P. aeruginosa CDC 457, VIM) of 2 µg/mL (≈ 3.42 µM). It also gave an MIC ([11]; P. aeruginosa CDC 516, KPC/AmpC) of 2 µg/mL (≈ 3.42 µM) and an MIC ([11]; P. aeruginosa CDC 518, KPC/AmpC) of 16 µg/mL (≈ 27.3 µM).
`NC[C@H]1O[C@H](O[C@H]2[C@H](O)[C@@H](O[C@H]3O[C@H](CO)[C@@H](O)[C@H](N)[C@H]3O)[C@H](N)C[C@@H]2N)[C@H](N)C[C@@H]1O` [TOB] gave an MIC [3, 16] of 32 µg/mL, an MIC ([5]; B. cenocepacia isolate 0548 (CIP-R)) of 32 µg/mL and an MIC ([10]; B. cepacia isolate 0546) of 64 µg/mL (≈ 137 µM). The MIC ([10]; B. cepacia isolate 1793) was 64 µg/mL (≈ 137 µM), the MIC ([10]; B. cepacia isolate 1794) was 64 µg/mL (≈ 137 µM) and the MIC [6] was 64 µg/mL (≈ 137 µM).
In the case of `OC(Cn1cncn1)(Cn1cncn1)c1ccc(F)cc1F` [FLU], the MIC2 ([12]; A. fumigatus ATCC 204305) is reported as greater than 64 µg/mL, the MIC2 ([12]; A. fumigatus ATCC MYA-3626) is reported as greater than 64 µg/mL and the MIC2 ([12]; A. fumigatus MMX 5934) is reported as greater than 64 µg/mL. It also gave an MIC2 ([12]; A. fumigatus MMX 5938) greater than 64 µg/mL, an MIC2 ([12]; A. fumigatus MMX 5939) greater than 64 µg/mL and an MIC2 [13] greater than 64 µg/mL. For the same compound, the MIC2 ([14]; A. flavus ATCC 22546) was greater than 64 µg/mL, the MIC2 ([14]; A. flavus ATCC 204304) was greater than 64 µg/mL and the MIC2 ([14]; A. flavus MMX 7935) was greater than 64 µg/mL. The MIC2 [15] was greater than 64 µg/mL.

— US11464749B2, “Bismuth-thiol compositions and methods of use” (Microbion Corporation, priority 2018, dated 2022)
